Data taken from publication PMC10053770, “Assessment of the Pharmacokinetics, Disposition, and Duration of Action of the Tumour-Targeting Peptide CEND-1” (International Journal of Molecular Sciences, 2023).
Bridges are numbered along the chain shown (N, C = ends). Where no end group is shown, it is not given here.

System: HCCs of TGFα/c-myc mice
Test: Tumour penetration assessment with Evans blue
Assay type: in vivo, mouse
Conditions: 4 μmol/kg peptide i.v.; Evans blue 33 mg/kg i.v. 24 h later; photometric quantification; n = 11 tumours from four animals
Procedure: Homozygous metallothionein/TGFα and albumin/c-myc single transgenic mice in CD13B6CBA background were crossed to generate the male TGFα/c-myc bitransgenic mice, as previously described. Hepatocarcinogenesis was accelerated by giving the mice ZnCl2 (via the drinking water) to induce the expression of TGFα. The animals were inspected every 2 to 3 days. To detect and monitor the endogenously formed HCCs in the TGFα/c-myc mice, gadoxetic acid (Gd-EOB-DTPA)-enhanced MRI was performed on a 3T MRI scanner (Siemens Magnetom Trio, Siemens Medical Solutions) as described recently. Mice with HCC as identified by Gd-EOB-DTPA-enhanced MRI were used in the subsequent experiments.
TGFα/c-myc mice with confirmed liver tumours according to Gd-EOB-DTPA […]-enhanced MRI or nude mice with HepG2 tumours received iRGD/CEND-1 or RGD control peptide (4 μmol/kg each), or PBS by tail vein injection. […] Another 30 min later, the mice were terminally perfused with Ringer solution by cannulation of the left heart ventricle. Organs were inspected macroscopically following laparotomy, and the liver, tumour and other organs were excised. Evans blue was extracted from tissues in N,N-dimethylformamide for 24 h at 37 °C and quantified spectrophotometrically (Beckman Coulter DU 800, Beckman Coulter, Brea, CA, USA) at 600 nm.

## CRGDDGPKC (disulfide 1-9 (inferred)) [RGD control peptide, RGD control peptide (…)]
  increase in Evans blue in the tumour tissue: no effect
